Data reported in ChEMBL document CHEMBL3886805, “Pyrrolotriazinone derivatives as PI3K inhibitors” (2016).

Target: T1, Phosphatidylinositol 4,5-bisphosphate 3-kinase catalytic subunit delta isoform (Homo sapiens, UniProt O00329)
T1 sequence (O00329 whole entry): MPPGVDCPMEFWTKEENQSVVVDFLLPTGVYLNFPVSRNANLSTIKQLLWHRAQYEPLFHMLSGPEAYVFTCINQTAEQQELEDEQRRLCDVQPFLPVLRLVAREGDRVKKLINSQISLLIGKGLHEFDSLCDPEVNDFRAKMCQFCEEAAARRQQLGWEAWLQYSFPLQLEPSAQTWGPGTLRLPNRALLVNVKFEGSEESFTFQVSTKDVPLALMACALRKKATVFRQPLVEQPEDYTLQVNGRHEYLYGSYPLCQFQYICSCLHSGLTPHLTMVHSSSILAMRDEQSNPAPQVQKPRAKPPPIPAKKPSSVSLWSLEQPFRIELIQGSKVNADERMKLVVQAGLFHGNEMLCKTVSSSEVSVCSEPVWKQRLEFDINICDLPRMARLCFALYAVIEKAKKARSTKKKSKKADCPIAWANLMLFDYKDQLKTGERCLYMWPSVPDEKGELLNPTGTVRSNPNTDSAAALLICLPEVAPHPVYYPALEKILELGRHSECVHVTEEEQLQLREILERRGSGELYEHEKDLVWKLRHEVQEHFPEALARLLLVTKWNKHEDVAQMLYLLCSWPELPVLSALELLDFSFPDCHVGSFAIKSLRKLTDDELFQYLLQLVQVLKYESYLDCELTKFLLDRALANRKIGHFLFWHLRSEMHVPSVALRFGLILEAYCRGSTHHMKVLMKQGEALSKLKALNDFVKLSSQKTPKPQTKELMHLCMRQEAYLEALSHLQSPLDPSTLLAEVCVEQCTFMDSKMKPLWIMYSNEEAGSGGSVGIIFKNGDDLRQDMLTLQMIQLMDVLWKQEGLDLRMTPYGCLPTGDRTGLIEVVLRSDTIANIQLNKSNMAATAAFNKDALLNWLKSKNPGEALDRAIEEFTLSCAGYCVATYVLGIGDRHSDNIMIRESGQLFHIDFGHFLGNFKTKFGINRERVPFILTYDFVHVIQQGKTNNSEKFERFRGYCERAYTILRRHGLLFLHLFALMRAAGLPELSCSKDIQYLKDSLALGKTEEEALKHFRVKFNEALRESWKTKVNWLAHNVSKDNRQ
Test: [PIP2] was used at its Km.

Compound	IC50
COc1ncc(-c2c(N)ncnc2N[C@@H](C)c2nn3ccc(C)c3c(=O)n2-c2ccccc2)cc1NS(=O)(=O)C(F)(F)F	1 nM
C[C@H](Nc1ncnc(N)c1C#N)c1nn2ccc(Sc3ccc(O)c(F)c3)c2c(=O)n1-c1ccccc1	2 nM
Cc1ccn2nc([C@H](C)Nc3ncnc(N)c3C(=O)Nc3cc(C(N)=O)ccc3O)n(-c3ccccc3)c(=O)c12	3 nM
COc1ncc(-c2c(N)ncnc2N[C@@H](C)c2nn3ccc(Br)c3c(=O)n2-c2ccccc2)cc1NS(C)(=O)=O	25 nM

The remaining lines, values ahead:

IC50	Compound
0.4 nM	COc1ccc(S(=O)(=O)n2ncc3ccc(-c4c(N)ncnc4N[C@@H](C)c4nn5ccc(C)c5c(=O)n4-c4ccccc4)cc32)cc1
3 nM	Cc1ccn2nc([C@H](C)Nc3ncnc(N)c3C(=O)Nc3cccc(O)c3)n(-c3ccccc3)c(=O)c12
